Measurements taken from PubChem BioAssay (NCI).
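Five compound concentrations were applied to cells in 96-well plates for 48 hours; endpoints were derived by simple linear interpolation of the resulting dose-response curve. TGI: total growth inhibition.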

How the values were obtained:
Assay in all cases: growth of human tumour cells (NCI), 48 h
786-0 renal = test system: 786-0 renal
A549 NSCLC = test system: A549 NSCLC
ACHN renal = test system: ACHN renal
BT-549 breast = test system: BT-549 breast
CAKI-1 renal = test system: CAKI-1 renal
CCRF-CEM leukemia = test system: CCRF-CEM leukemia
COLO 205 colon = test system: COLO 205 colon
DU-145 prostate = test system: DU-145 prostate
EKVX NSCLC = test system: EKVX NSCLC
HCC-2998 colon = test system: HCC-2998 colon
HCT-116 colon = test system: HCT-116 colon
HCT-15 colon = test system: HCT-15 colon
HL-60(TB) leukemia = test system: HL-60(TB) leukemia
HOP-62 NSCLC = test system: HOP-62 NSCLC
HOP-92 NSCLC = test system: HOP-92 NSCLC
HS 578T breast = test system: HS 578T breast
HT29 colon = test system: HT29 colon
IGROV1 ovarian = test system: IGROV1 ovarian
K-562 leukemia = test system: K-562 leukemia
KM12 colon = test system: KM12 colon
LOX IMVI melanoma = test system: LOX IMVI melanoma
M14 melanoma = test system: M14 melanoma
MALME-3M melanoma = test system: MALME-3M melanoma
MCF7 breast = test system: MCF7 breast
MDA-MB-231 breast = test system: MDA-MB-231 breast
MDA-MB-435 = test system: MDA-MB-435
MDA-N = test system: MDA-N
MOLT-4 leukemia = test system: MOLT-4 leukemia
NCI-H226 lung = test system: NCI-H226 lung
NCI-H23 lung = test system: NCI-H23 lung
NCI-H460 lung = test system: NCI-H460 lung
NCI-H522 lung = test system: NCI-H522 lung
NCI/ADR-RES ovarian = test system: NCI/ADR-RES ovarian
OVCAR-3 ovarian = test system: OVCAR-3 ovarian
OVCAR-4 ovarian = test system: OVCAR-4 ovarian
OVCAR-5 ovarian = test system: OVCAR-5 ovarian
OVCAR-8 ovarian = test system: OVCAR-8 ovarian
PC-3 prostate = test system: PC-3 prostate
RPMI-8226 leukemia = test system: RPMI-8226 leukemia
RXF 393 renal = test system: RXF 393 renal
SF-268 CNS = test system: SF-268 CNS
SF-295 CNS = test system: SF-295 CNS
SF-539 CNS = test system: SF-539 CNS
SK-MEL-2 melanoma = test system: SK-MEL-2 melanoma
SK-MEL-28 melanoma = test system: SK-MEL-28 melanoma
SK-MEL-5 melanoma = test system: SK-MEL-5 melanoma
SK-OV-3 ovarian = test system: SK-OV-3 ovarian
SN12C renal = test system: SN12C renal
SNB-19 CNS = test system: SNB-19 CNS
SNB-75 CNS = test system: SNB-75 CNS
SR leukemia = test system: SR leukemia
SW-620 colon = test system: SW-620 colon
T-47D breast = test system: T-47D breast
TK-10 renal = test system: TK-10 renal
U251 CNS = test system: U251 CNS
UACC-257 melanoma = test system: UACC-257 melanoma
UACC-62 melanoma = test system: UACC-62 melanoma
UO-31 renal = test system: UO-31 renal

## CC(C)OP(=O)(CCCCCCCCC/C=C/c1ccc2c(c1)OCCOCCOCCOCCO2)OC(C)C
786-0 renal
  TGI: 14.1 µM
A549 NSCLC
  TGI: 13.6 µM
ACHN renal
  TGI: 11.8 µM
BT-549 breast
  TGI: 9.09 µM
CAKI-1 renal
  TGI: 11.7 µM
CCRF-CEM leukemia
  TGI: 7.5 µM
COLO 205 colon
  TGI: 3.89 µM
DU-145 prostate
  TGI: 15.2 µM
EKVX NSCLC
  TGI: 11.8 µM
HCC-2998 colon
  TGI: 14.2 µM
HCT-116 colon
  TGI: 11.2 µM
HCT-15 colon
  TGI: 10.3 µM
HL-60(TB) leukemia
  TGI: 30.7 µM
HOP-62 NSCLC
  TGI: 6.15 µM
HOP-92 NSCLC
  TGI: 5.8 µM
HS 578T breast
  TGI: 9.02 µM
HT29 colon
  TGI: 11 µM
IGROV1 ovarian
  TGI: 16.2 µM
K-562 leukemia
  TGI: 24.1 µM
KM12 colon
  TGI: 11 µM
LOX IMVI melanoma
  TGI: 4.93 µM
M14 melanoma
  TGI: 13.5 µM
MALME-3M melanoma
  TGI: 13.7 µM
MCF7 breast
  TGI: 11.2 µM
MDA-MB-231 breast
  TGI: 12.6 µM
MDA-MB-435
  TGI: 13.6 µM
MDA-N
  TGI: 13.5 µM
MOLT-4 leukemia
  TGI: 10.7 µM
NCI-H226 lung
  TGI: 9.24 µM
NCI-H23 lung
  TGI: 8.21 µM
NCI-H460 lung
  TGI: 7.37 µM
NCI-H522 lung
  TGI: 10.1 µM
NCI/ADR-RES ovarian
  TGI: 10.5 µM
OVCAR-3 ovarian
  TGI: 10 µM
OVCAR-4 ovarian
  TGI: 16.2 µM
OVCAR-5 ovarian
  TGI: 11.4 µM
OVCAR-8 ovarian
  TGI: 12.1 µM
PC-3 prostate
  TGI: 9.51 µM
RPMI-8226 leukemia
  TGI: > 100 µM
RXF 393 renal
  TGI: 9.12 µM
SF-268 CNS
  TGI: 16.8 µM
SF-295 CNS
  TGI: 10.3 µM
SF-539 CNS
  TGI: 12.4 µM
SK-MEL-2 melanoma
  TGI: 8.69 µM
SK-MEL-28 melanoma
  TGI: 20.1 µM
SK-MEL-5 melanoma
  TGI: 7.76 µM
SK-OV-3 ovarian
  TGI: 9.19 µM
SN12C renal
  TGI: 14.2 µM
SNB-19 CNS
  TGI: 15.2 µM
SNB-75 CNS
  TGI: 10.4 µM
SR leukemia
  TGI: 15.4 µM
SW-620 colon
  TGI: 14.7 µM
T-47D breast
  TGI: 9.11 µM
TK-10 renal
  TGI: 21.4 µM
U251 CNS
  TGI: 7.74 µM
UACC-257 melanoma
  TGI: 10.2 µM
UACC-62 melanoma
  TGI: 14.8 µM
UO-31 renal
  TGI: 9.02 µM

## COC(=O)C(C)(Cc1ccc2c(c1)nnn2C(C)=O)NC(C)=O (stereo not drawn)
786-0 renal
  TGI: > 100 µM
A549 NSCLC
  TGI: > 100 µM
ACHN renal
  TGI: > 100 µM
BT-549 breast
  TGI: > 100 µM
CAKI-1 renal
  TGI: > 100 µM
CCRF-CEM leukemia
  TGI: > 100 µM
COLO 205 colon
  TGI: > 100 µM
DU-145 prostate
  TGI: > 100 µM
EKVX NSCLC
  TGI: > 100 µM
HCC-2998 colon
  TGI: > 100 µM
HCT-116 colon
  TGI: > 100 µM
HCT-15 colon
  TGI: > 100 µM
HL-60(TB) leukemia
  TGI: > 100 µM
HOP-92 NSCLC
  TGI: > 100 µM
HS 578T breast
  TGI: > 100 µM
HT29 colon
  TGI: > 100 µM
IGROV1 ovarian
  TGI: > 100 µM
K-562 leukemia
  TGI: > 100 µM
KM12 colon
  TGI: > 100 µM
LOX IMVI melanoma
  TGI: > 100 µM
M14 melanoma
  TGI: > 100 µM
MALME-3M melanoma
  TGI: > 100 µM
MCF7 breast
  TGI: > 100 µM
MDA-MB-231 breast
  TGI: > 100 µM
MDA-MB-435
  TGI: > 100 µM
MDA-N
  TGI: > 100 µM
MOLT-4 leukemia
  TGI: > 100 µM
NCI-H226 lung
  TGI: > 100 µM
NCI-H23 lung
  TGI: > 100 µM
NCI-H460 lung
  TGI: > 100 µM
NCI-H522 lung
  TGI: > 100 µM
NCI/ADR-RES ovarian
  TGI: > 100 µM
OVCAR-3 ovarian
  TGI: > 100 µM
OVCAR-4 ovarian
  TGI: > 100 µM
OVCAR-5 ovarian
  TGI: > 100 µM
OVCAR-8 ovarian
  TGI: > 100 µM
PC-3 prostate
  TGI: > 100 µM
RPMI-8226 leukemia
  TGI: > 100 µM
RXF 393 renal
  TGI: > 100 µM
SF-268 CNS
  TGI: > 100 µM
SF-295 CNS
  TGI: > 100 µM
SK-MEL-2 melanoma
  TGI: > 100 µM
SK-MEL-28 melanoma
  TGI: > 100 µM
SK-MEL-5 melanoma
  TGI: > 100 µM
SK-OV-3 ovarian
  TGI: > 100 µM
SNB-19 CNS
  TGI: > 100 µM
SNB-75 CNS
  TGI: > 100 µM
SR leukemia
  TGI: > 100 µM
SW-620 colon
  TGI: > 100 µM
T-47D breast
  TGI: > 100 µM
TK-10 renal
  TGI: > 100 µM
UACC-257 melanoma
  TGI: > 100 µM
UACC-62 melanoma
  TGI: > 100 µM
UO-31 renal
  TGI: > 100 µM

## CC(=O)OCC1OC(NC(=S)CCSc2nc3ccccc3c(=O)n2-c2ccccc2)C(OC(C)=O)C(OC(C)=O)C1OC(C)=O (stereo not drawn)
786-0 renal
  TGI: > 100 µM
A549 NSCLC
  TGI: > 100 µM
ACHN renal
  TGI: > 100 µM
BT-549 breast
  TGI: > 100 µM
CAKI-1 renal
  TGI: > 100 µM
CCRF-CEM leukemia
  TGI: > 100 µM
COLO 205 colon
  TGI: > 100 µM
DU-145 prostate
  TGI: > 100 µM
EKVX NSCLC
  TGI: > 100 µM
HCC-2998 colon
  TGI: > 100 µM
HCT-116 colon
  TGI: > 100 µM
HCT-15 colon
  TGI: > 100 µM
HL-60(TB) leukemia
  TGI: 88.1 µM
HOP-62 NSCLC
  TGI: > 100 µM
HOP-92 NSCLC
  TGI: 98.1 µM
HS 578T breast
  TGI: > 100 µM
HT29 colon
  TGI: > 100 µM
IGROV1 ovarian
  TGI: 25.1 µM
K-562 leukemia
  TGI: > 100 µM
KM12 colon
  TGI: > 100 µM
LOX IMVI melanoma
  TGI: > 100 µM
M14 melanoma
  TGI: > 100 µM
MALME-3M melanoma
  TGI: > 100 µM
MCF7 breast
  TGI: > 100 µM
MDA-MB-231 breast
  TGI: > 100 µM
MDA-MB-435
  TGI: > 100 µM
MDA-N
  TGI: > 100 µM
MOLT-4 leukemia
  TGI: > 100 µM
NCI-H226 lung
  TGI: > 100 µM
NCI-H23 lung
  TGI: > 100 µM
NCI-H460 lung
  TGI: > 100 µM
NCI-H522 lung
  TGI: > 100 µM
NCI/ADR-RES ovarian
  TGI: > 100 µM
OVCAR-3 ovarian
  TGI: > 100 µM
OVCAR-5 ovarian
  TGI: > 100 µM
OVCAR-8 ovarian
  TGI: > 100 µM
PC-3 prostate
  TGI: > 100 µM
RPMI-8226 leukemia
  TGI: > 100 µM
RXF 393 renal
  TGI: 58.2 µM
SF-268 CNS
  TGI: > 100 µM
SF-295 CNS
  TGI: > 100 µM
SF-539 CNS
  TGI: 34 µM
SK-MEL-2 melanoma
  TGI: 76.3 µM
SK-MEL-28 melanoma
  TGI: > 100 µM
SK-MEL-5 melanoma
  TGI: > 100 µM
SK-OV-3 ovarian
  TGI: > 100 µM
SN12C renal
  TGI: > 100 µM
SNB-19 CNS
  TGI: > 100 µM
SNB-75 CNS
  TGI: 60.7 µM
SR leukemia
  TGI: > 100 µM
SW-620 colon
  TGI: > 100 µM
T-47D breast
  TGI: > 100 µM
U251 CNS
  TGI: > 100 µM
UACC-257 melanoma
  TGI: > 100 µM
UACC-62 melanoma
  TGI: > 100 µM
UO-31 renal
  TGI: > 100 µM
